Laboratory results as given in patent publication US8071641B2 (Yissum Research Development Company of the Hebrew …, priority 2004, dated 2011).
Several values for one entry are separate records, joined by “and”; a condition that tells them apart may be missing. Equal values may be shown once.

Assays:
[1] = system: NOD mice; test: Spontaneous diabetes in NOD mice (glucosuria, IPGTT); format: in vivo
Source text: Animals: Non-obese diabetic (NOD) mice develop spontaneous autoimmune diabetes and are commonly used as an experimental model for human insulin-dependent diabetes mellitus [Miazaki A., Clin. Exp. Immunol. 60:622 (1998); Harada, M., Exp. Clin. Endocrinol. 89: 251 (1987)].
Six to twelve week old NOD/Ltj female mice were fed standard laboratory animal chow ad libitum and were kept in Specific Pathogen Free (SPF) animal house facility.
(§1) Mice injected with vehicle alone as well as untreated mice served as controls.
Glucosuria analysis: The severity of diabetes was determined according to glucosuria, which was measured using Combi 9 Teststrips (Medi-Test, Macherey-Nagel, Duren, Germany).
Intraperitoneal glucose tolerance tests (IPGTT): Blood samples were obtained from the paraorbital plexus at 0 and 60 minutes after administration of an i.p. glucose injection at a dose of 1 g/kg body weight. Plasma glucose levels were determined using Glucose Analyzer 2 (Beckman Instruments). A glucose level above 15 mmol/liter at the 60 min time point was considered as a positive IPGTT.

[2] = system: INFγ; test: Plasma INFγ level in NOD mice by ELISA; format: in vivo; conditions: 5 mg/kg i.p., mean of 5 mice
Protocol: as §1
Plasma INFγ: INFγ is associated with the progression of diabetes in NOD mice (Schloot, N. C., Diabetes Metab. Res. Rev. 18:64, 2002; Weiss et al., Cytokine 19:85, 2002; Braz, J., Med. Biol. Res. 35: 1347, 2000).
Plasma INFγ levels in mice were determined by ELISA kit (B.D Bioscience San Diego U.S.A).

[3] = system: islets of Langerhans; test: Histopathology of pancreatic islets (insulitis) in NOD mice; format: in vivo
Source text: as §1
Histopathology: Twenty weeks after onset of treatment mice were sacrificed. Pancreatic tissue samples were fixed in 4% buffered formation, embedded in paraffin, sectioned (5 μm thickness) and stained with hematoxylin and eosin. The stained pancreatic sections were observed under a microscope for infiltration of mononuclear lymphocytes into the islets of Langerhans (insulitis). The sections were scored by two uninformed observers as follows: 0, no cell infiltration; 1, cell infiltration in <20% of islet area; 2, cell infiltration in <50% of islet area; cell infiltration in <75% of islet area; and 4, cell infiltration in 90-100% of islet area.

[4] = system: male NOD mice; test: Diabetes induced in male NOD mice by transfer of spleen cells from diabetic female mice; format: in vivo
Protocol: Experimental design—Male NOD mice were irradiated (650 cGy), 24 hrs prior to intravenous injection of spleen cells (25-28×10^6) derived from female diabetic mice.
Intraperitoneal glucose tolerance tests (IPGTT)—see Example 1 above. Blood glucose levels above 140 mg/dl were considered diabetic by testing blood glucose at t-0, 60 min following IP injection of 1 gr/Kg body weight of glucose [Glucometer Elite apparatus (Bayer Diagnostics, ELKART, IN)]. Alternatively, urine samples were taken twice a week from diabetic mice for testing glucose levels. Urine glucose levels above 1000 mg/dl as determined by combi 9 Teststrips (Medi-Test, Macherey-Nagel, Duren, Germany) were considered diabetic;

[5] = system: mice; conditions: orally at doses of up to 10 mg/kg; cited from earlier work
[6] = system: mice; conditions: topical administration; cited from earlier work
[7] = system: mouse peritoneal macrophages; conditions: macrophages activated by LPS and IFNγ; cited from earlier work
[8] = system: human leukocytes; conditions: cited from earlier work
[9] = target: peripheral receptors CB2 (Homo sapiens, UniProt P34972); conditions: cited from earlier work
[10] = 20 weeks after onset of treatment, of 54 scored fields
[11] = 5 mg/kg CBD, 20 IP injections, 5 times/week, of 15 mice
[12] = high concentrations (5-24 pg/ml)

Chain of peripheral receptors CB2 (P34972 whole entry): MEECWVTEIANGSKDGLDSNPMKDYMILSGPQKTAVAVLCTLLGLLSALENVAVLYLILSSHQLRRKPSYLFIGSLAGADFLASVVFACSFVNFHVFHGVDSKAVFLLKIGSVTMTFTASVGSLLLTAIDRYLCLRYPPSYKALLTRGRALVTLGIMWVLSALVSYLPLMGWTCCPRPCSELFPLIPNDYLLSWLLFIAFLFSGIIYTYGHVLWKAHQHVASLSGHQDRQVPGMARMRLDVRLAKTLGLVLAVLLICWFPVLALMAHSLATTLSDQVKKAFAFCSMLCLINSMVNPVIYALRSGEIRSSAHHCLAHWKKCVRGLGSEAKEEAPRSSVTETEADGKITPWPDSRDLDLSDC

## C=C(C)[C@@H]1CCC(C)=C[C@H]1c1c(O)cc(CCCCC)cc1O [CBD, Cannabidiol]
[1]; compared to untreated and vehicle-treated controls
  onset of symptoms in the CBD-treated diabetic mice: substantially delayed
[1]; compared with controls
  rate of protection: greater than 65%
[1]; female NOD mice, 5 mg/kg i.p.
  Diabetes appearance (weeks), mean and range of weeks of first positive diagnosis: 18.4 (15-22) weeks
[1]; female NOD mice, 5 mg/kg i.p., 5 injections per week, 10-23 injections
  Diabetes incidence (%): 21.7%
[1]; female NOD mice, 5 mg/kg i.p., 5 injections per week, 10-23 injections, of 23 mice
  No. of diabetic mice: 5
[2]
  INFγ (pg/ml) ± SD: 43 pg/ml and 43 ± 21*^2 pg/ml
[3]; 1/54
  islets showing destruction: 1.9%
[3]; 6/54
  islets showing total infiltration: 11%
[3]; 20 week period, 47/54
  protected islets (intact or only partially infiltrated): 87%
[3]; [10]
  No. of fully destroyed islets: 1
  No. of intact islets: 26
  No. of partially infiltrated islets: 21
  No. of totally infiltrated islets: 6
[3]; 21/54
  only partially infiltrated pancreatic islets: 39%
[3]; 26/54
  intact pancreatic islets: 48%
[4]; 5 mg/kg CBD, 20 IP injections, 5 times/week
  Total % of diabetic mice: 53%
[4]; [11]
  No. of diabetic mice (urine glucose above 1000 mg/dl): 6
  No. of mice w/ latent diabetes (blood glucose above 140 mg/dl 60 minutes following IP glucose injection): 2
[4]; male NOD mice injected with splenocytes from diabetic female NOD mice
  suppression of the appearance of diabetes: about half
[5]
  PBQ-induced writhing: inhibited
[6]
  TPA-induced erythema: reduce
[7]
  nitric oxide (NO) produced: inhibited
[8]; [12]
  IFNγ synthesis: completely blocked
  IL-1 production: decreased
  IL-2 secretion: did not affect
  TNFα production: decreased
[8]; low concentrations
  IFNγ production: increased
[9]
  binding to peripheral receptors CB2: does not bind
